For one data set, the target named is PI-3 kinase γ (Homo sapiens, UniProt P48736). The data set can be described thus: PI3Kγ inhibitory activity, PI3-kinase HTRF assay (inhibition ratio). The class given is biochemical. Particulars: 0.5 h; for inhibition at 50 µM: compound at 50 μM. The essentials:
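PI3Kγ preincubated 10 min with compound and PIP2 substrate (MgCl2, DTT), then ATP added for 30 min at room temperature. PIP3 detected by HTRF (665/620 nm ratio) after 18 h. Inhibition ratio at 50 or 10 μmol/L, normalised to no-compound and no-enzyme controls.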
On the technique in general: Time-resolved FRET reads energy transfer from a long-lived donor to a nearby acceptor.

A further data set has as its target T1, CYP1A2 (Homo sapiens, UniProt P05177).
T1 construct: enzyme: pooled human liver microsome 0.2 mg protein/mL; from tissue; host or cells: pooled human liver microsome
T1 sequence (P05177 1-516): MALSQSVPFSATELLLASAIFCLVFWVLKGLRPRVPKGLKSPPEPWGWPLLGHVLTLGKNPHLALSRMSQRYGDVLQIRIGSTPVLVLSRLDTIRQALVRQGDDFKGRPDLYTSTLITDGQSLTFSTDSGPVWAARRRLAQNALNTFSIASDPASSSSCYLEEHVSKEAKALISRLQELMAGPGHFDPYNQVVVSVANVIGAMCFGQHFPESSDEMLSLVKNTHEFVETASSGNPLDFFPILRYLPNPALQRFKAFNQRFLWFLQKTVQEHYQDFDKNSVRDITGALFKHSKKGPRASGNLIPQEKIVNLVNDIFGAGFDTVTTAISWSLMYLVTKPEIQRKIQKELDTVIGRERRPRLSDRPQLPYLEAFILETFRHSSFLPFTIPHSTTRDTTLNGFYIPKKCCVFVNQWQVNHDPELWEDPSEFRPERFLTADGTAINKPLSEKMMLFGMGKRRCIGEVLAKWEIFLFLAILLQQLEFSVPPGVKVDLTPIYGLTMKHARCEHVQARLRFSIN
Description: CYP inhibition test, pooled human liver microsome, CYP1A2. The class given is in vitro ADME. As to conditions: O-de-ethylation of 7-ethoxyresorufin. The source says:
(§1) O-de-ethylation of 7-ethoxyresorufin (CYP1A2), methyl-hydroxylation of tolbutamide (CYP2C9), 4′-hydroxylation of mephenyloin (CYP2C19), O-demethylation of dextromethorphan (CYP2D6), and hydroxylation of terfenadine (CYP3A4), which are typical substrate for metabolic reactions of human main CYP5 molecular species (CYP1A2, 2C9, 2C19, 2D6, and 3A4), were adopted as indexes.
(§2) The reaction conditions are as follows: substrate: 0.5 μmol/L of ethoxyresorufin (CYP1A2), 100 μmol/L of tolbutamide (CYP2C9), […] of S-mephenyloin (CYP2C19), 5 μmol/L of dextromethorphan (CYP2D6), and 1 μmol/L of terfenadine (CYP3A4); reaction time; 15 minutes; reaction temperature: 37° C.; enzyme: pooled human liver microsome 0.2 mg protein/mL; test drug concentration: 1, 5, 10, and 20 μmol/L (4 points).
(§3) In a 96-well plate, as a reaction solution, five kinds of substrates, a human liver microsome, and a test drug were added to 50 mmol/L Hepes buffer solution in the aforementioned ratio. A coenzyme NADPH was added to start a metabolic reaction, which is an index. After reacting at 37° C. for 15 minutes, a solution of methanol/acetonitrile (1/1 (v/v)) was added to quench the reaction. After centrifugation at 3000 rpm for 15 minutes, resorufin (CYP1A2 metabolite) in the supernatant was quantitated with a fluorescence multilabel counter, and hydroxylated tolbutamide (CYP2C9 metabolite), 4′-hydroxylated mephenyloin (CYP2C19 metabolite), […], terfenadine in alcohol form (CYP3A4 metabolite) were quantitated with LC/MS/MS.
(§4) The case wherein only DMSO (a solvent which dissolved a drug) was added to a reaction system was defined as a control (100%). When a test drug solution was added, the remaining activity (%) at each concentration was calculated, and then IC50 was calculated with a concentration and an inhibition ratio by an inverse estimation using a logistic model.
Background: Liver microsomes are a subcellular fraction often used to study metabolism.

A further data set addresses T2, CYP2C9 (Homo sapiens, UniProt P11712).
T2 construct: enzyme: pooled human liver microsome 0.2 mg protein/mL; from tissue; host or cells: pooled human liver microsome
Description: CYP inhibition test, pooled human liver microsome, CYP2C9. The class given is in vitro ADME. As to conditions: methyl-hydroxylation of tolbutamide.
Excerpt: as §1, §2, §3, §4

The next data set has as its target T3, CYP2C19 (Homo sapiens, UniProt P33261).
T3 construct: enzyme: pooled human liver microsome 0.2 mg protein/mL; from tissue; host or cells: pooled human liver microsome
Description: CYP inhibition test, pooled human liver microsome, CYP2C19. The class given is in vitro ADME. Particulars: 4′-hydroxylation of mephenyloin.
Excerpt: as §1, §2, §3, §4

The next data set deals with T4, CYP2D6 (Homo sapiens, UniProt P10635).
T4 construct: enzyme: pooled human liver microsome 0.2 mg protein/mL; from tissue; host or cells: pooled human liver microsome
Description: CYP inhibition test, pooled human liver microsome, CYP2D6. As to conditions: O-demethylation of dextromethorphan. The class given is in vitro ADME.
Excerpt: as §1, §2, §3, §4

The target in another data set is T5, CYP3A4 (Homo sapiens, UniProt P08684).
T5 construct: enzyme: pooled human liver microsome 0.2 mg protein/mL; from tissue; host or cells: pooled human liver microsome
The data set can be described thus: CYP inhibition test, pooled human liver microsome, CYP3A4. It is filed as in vitro ADME. As to conditions: hydroxylation of terfenadine.
Excerpt: as §1, §2, §3, §4

A further data set can be described thus: Solubility test. It is filed as physicochemical. Particulars: kinetic from dmso stock; artificial intestinal juice pH 6.8, 1% DMSO, 25° C. for 16 hours. On the procedure:
The solubility of a compound was determined under a condition in which 1% DMSO was added. 10 mmol/L compound solution was prepared using DMSO, and then 6 μL of the compound solution was added to 594 μL of artificial intestinal juice in pH 6.8 (to 250 mL of 0.2 mol/L potassium dihydrogen phosphate reagent solution was added 118 mL of 0.2 mol/L NaOH reagent solution and water to provide a final volume of 1000 mL). After standing at 25° C. for 16 hours, the mixed solution was filtered with suction. The filtrate was diluted twice with methanol/water (1/1), and then a concentration in the filtration was measured with HPLC or LC/MS/MS by the absolute calibration method.

A short description of another data set: Metabolic stability test.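 Further: 100% equals the compound amount at 0 min reaction.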 The class given is in vitro ADME. As to conditions: human liver microsome 0.5 mg protein/mL, 1 mmol/L NADPH, 37° C. On the procedure: After a subject compound was reacted for a certain time using a pooled human liver microsome commercially available, a reacted sample and an unreacted sample are compared to calculate a survival ratio, and then the degree of metabolism in the liver was evaluated.
0.2 mL of a buffer solution (50 mmol/L of Tris-HCl in pH 7.4, 150 mmol/L of potassium chloride, and 10 mmol/L of magnesium chloride) containing a human liver microsome of 0.5 mg protein/mL was reacted in the presence of 1 mmol/L NADPH at 37° C. for 0 or 30 minutes (oxidative reaction). After reacting, 50 μL of the reaction solution was added to 100 μL of a solution of methanol/acetonitrile (1/1 (v/v)), mixed, and then centrifuged at 3000 rpm for 15 minutes. The test compound in the supernatant was quantitated with LC/MS/MS. The amount of the compound at a reaction time of 0 minute was defined as 100% and, based on that, the percentage of the test compound remained after reacting for 30 minutes was calculated.

T5 sequence (P08684 whole entry): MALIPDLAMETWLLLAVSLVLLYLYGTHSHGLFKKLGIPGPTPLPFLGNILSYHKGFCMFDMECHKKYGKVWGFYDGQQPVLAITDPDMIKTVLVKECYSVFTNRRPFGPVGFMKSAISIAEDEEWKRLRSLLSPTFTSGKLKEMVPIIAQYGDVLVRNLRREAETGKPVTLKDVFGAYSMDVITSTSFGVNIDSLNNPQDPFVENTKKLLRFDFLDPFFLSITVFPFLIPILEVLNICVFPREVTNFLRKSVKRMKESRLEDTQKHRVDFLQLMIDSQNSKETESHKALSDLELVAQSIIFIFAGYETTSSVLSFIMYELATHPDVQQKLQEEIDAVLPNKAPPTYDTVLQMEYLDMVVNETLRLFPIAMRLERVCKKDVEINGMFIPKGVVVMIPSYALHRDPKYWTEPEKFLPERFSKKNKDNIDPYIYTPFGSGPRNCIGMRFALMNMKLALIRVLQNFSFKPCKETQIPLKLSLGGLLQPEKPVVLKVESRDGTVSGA
T2 sequence (P11712 whole entry): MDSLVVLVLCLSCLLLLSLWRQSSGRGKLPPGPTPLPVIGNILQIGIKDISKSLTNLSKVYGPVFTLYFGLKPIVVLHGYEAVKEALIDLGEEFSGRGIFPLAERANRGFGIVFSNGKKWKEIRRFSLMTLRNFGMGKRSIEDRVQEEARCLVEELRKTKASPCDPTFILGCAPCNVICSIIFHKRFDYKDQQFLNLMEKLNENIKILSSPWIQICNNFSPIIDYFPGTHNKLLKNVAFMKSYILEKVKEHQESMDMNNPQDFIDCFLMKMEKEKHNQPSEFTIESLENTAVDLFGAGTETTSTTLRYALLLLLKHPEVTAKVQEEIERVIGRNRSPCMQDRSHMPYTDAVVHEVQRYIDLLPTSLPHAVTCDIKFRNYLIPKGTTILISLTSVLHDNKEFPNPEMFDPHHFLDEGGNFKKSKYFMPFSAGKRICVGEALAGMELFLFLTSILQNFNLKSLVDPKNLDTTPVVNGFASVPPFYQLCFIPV
T3 sequence (P33261 whole entry): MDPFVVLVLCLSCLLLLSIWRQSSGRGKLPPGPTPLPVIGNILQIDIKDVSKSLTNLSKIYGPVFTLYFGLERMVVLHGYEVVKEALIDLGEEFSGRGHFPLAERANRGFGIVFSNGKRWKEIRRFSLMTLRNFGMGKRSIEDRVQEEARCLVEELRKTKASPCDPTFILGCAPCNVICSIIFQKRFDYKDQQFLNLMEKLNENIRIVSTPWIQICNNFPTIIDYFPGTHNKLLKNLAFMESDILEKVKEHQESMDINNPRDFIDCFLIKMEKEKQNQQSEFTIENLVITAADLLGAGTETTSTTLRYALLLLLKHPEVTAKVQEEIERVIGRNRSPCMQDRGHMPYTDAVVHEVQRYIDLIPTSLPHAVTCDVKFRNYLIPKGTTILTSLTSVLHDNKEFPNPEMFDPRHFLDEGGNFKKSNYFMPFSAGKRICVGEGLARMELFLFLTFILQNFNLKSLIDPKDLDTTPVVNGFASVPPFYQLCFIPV
Chain of PI-3 kinase γ (P48736 whole entry): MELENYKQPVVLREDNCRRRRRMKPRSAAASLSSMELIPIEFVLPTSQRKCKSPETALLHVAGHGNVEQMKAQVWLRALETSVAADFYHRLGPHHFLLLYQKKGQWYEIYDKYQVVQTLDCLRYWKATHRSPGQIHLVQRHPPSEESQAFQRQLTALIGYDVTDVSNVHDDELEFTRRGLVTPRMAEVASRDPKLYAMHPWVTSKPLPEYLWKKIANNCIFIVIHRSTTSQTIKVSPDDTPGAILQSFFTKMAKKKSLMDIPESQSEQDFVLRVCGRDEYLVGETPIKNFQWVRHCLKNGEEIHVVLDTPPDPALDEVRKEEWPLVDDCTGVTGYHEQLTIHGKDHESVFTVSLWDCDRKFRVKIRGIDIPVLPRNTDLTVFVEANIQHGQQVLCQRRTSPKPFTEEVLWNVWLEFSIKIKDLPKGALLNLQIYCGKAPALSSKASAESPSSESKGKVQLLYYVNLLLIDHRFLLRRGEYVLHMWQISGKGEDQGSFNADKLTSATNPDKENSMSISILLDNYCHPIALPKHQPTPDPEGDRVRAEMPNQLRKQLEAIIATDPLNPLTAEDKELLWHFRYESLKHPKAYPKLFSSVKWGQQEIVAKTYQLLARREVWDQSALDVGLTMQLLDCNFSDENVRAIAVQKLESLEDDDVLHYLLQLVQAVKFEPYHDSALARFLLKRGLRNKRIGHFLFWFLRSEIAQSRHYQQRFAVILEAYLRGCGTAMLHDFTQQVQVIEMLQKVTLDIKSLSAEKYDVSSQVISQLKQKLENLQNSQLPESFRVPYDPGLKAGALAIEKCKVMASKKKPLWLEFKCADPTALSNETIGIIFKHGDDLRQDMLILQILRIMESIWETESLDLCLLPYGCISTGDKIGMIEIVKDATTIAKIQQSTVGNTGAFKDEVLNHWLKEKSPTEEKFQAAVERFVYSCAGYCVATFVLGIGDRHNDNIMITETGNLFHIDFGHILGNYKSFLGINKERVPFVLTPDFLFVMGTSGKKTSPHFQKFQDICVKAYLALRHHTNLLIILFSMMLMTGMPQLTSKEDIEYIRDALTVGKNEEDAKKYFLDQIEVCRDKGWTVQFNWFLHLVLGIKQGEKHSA
T4 sequence (P10635 whole entry): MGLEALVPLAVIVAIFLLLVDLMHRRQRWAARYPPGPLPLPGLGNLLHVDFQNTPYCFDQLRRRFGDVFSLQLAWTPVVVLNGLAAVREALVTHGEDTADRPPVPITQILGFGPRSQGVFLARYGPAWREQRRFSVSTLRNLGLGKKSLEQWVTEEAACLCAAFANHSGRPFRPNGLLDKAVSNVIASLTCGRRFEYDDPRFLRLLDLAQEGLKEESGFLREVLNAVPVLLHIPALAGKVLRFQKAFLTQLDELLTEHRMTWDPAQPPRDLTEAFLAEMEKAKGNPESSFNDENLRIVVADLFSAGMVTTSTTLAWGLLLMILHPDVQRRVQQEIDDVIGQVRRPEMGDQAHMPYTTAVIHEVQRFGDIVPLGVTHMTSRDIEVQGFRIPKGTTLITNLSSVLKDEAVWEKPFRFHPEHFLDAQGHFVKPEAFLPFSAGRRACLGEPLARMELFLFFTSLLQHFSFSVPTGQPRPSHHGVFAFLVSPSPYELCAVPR

As for `CC(=O)Nc1cc2n(n1)CCN2c1ccc2c(c1)CCC(=O)N2C` [Compound I-340], at PI-3 kinase γ (compound at 10 μmol/L), the inhibition at 10 µM was not below 95%. The IC50 on CYP1A2, against CYP2C9, against CYP2C19, at CYP2D6 and against CYP3A4 was more than 20 µM each time. The same compound showed a solubility at 16 h in the data set “Solubility test” of more than 50 µM. The “percentage of the test compound remained after reacting for 30 minutes” value (shortened to “percentage of the test compound remained”) in the data set “Metabolic stability test” is 98.3%.

With `CC(C)NC(=O)c1ccc(C(=O)Nc2cc3n(n2)CCN3c2ccc3c(c2)CCN(C)C3=O)s1` [Compound I-407], on PI-3 kinase γ (compound at 10 μmol/L), the inhibition at 10 µM is not below 95%. The IC50 against CYP1A2, against CYP2C9, at CYP2C19, on CYP2D6 and against CYP3A4 was more than 20 µM each time. Besides, in the data set “Metabolic stability test”, the “percentage of the test compound remained” value is listed as 92.9%.

As to `CN(C)C(=O)CCC(=O)Nc1cc2n(n1)CCN2c1cccc(Cl)c1` [Compound I-234], the inhibition at 50 µM at PI-3 kinase γ (PI3Kγ) is not below 95%. Moreover, the IC50 against CYP1A2, at CYP2C9, at CYP2C19, against CYP2D6 and against CYP3A4 was more than 20 µM each time. In addition, in “Metabolic stability test”, the “percentage of the test compound remained” value is on record as 98.3%.

`CNC(=O)Nc1cc2n(n1)CCN2c1ccc(C(=O)O)s1` [Compound I-217]: the inhibition at 50 µM at PI-3 kinase γ (PI3Kγ) is not below 95%. In addition, the half-inhibitory concentration (IC50) against CYP1A2, on CYP2C9, on CYP2C19, against CYP2D6 and on CYP3A4 was more than 20 µM each time. The compound further registered a solubility at 16 h in the data set “Solubility test” of more than 50 µM.

Take `CNC(=O)Nc1cc2n(n1)CCN2c1cc(Br)cc(C(=O)Nc2cccc(C(=O)O)c2)c1` [Compound I-187]: the inhibition at 50 µM at PI-3 kinase γ (PI3Kγ) came out at 94%. In addition, the 50% inhibitory concentration (IC50) against CYP1A2, against CYP2C9, at CYP2C19, on CYP2D6 and against CYP3A4 was more than 20 µM each time. Also, in the data set “Solubility test”, the solubility at 16 h is more than 50 µM. Moreover, in the data set “Metabolic stability test”, the “percentage of the test compound remained” value turned out to be 98.9%.

With `COc1cc(N2CCc3nc(NC(=O)NCCC(=O)N4CCC[C@H]4C(=O)O)sc3C2)nc(OC)n1` [Compound I-276], the inhibition at 10 µM at PI-3 kinase γ (PI3Kγ, compound at 10 μM) was not below 95%. In addition, the IC50 against CYP1A2, against CYP2C9, against CYP2C19, at CYP2D6 and at CYP3A4 was more than 20 µM in each case. Also, the solubility at 16 h in “Solubility test” was more than 50 µM. Besides, the “percentage of the test compound remained” value in “Metabolic stability test” was 90.1%.

For the compound `COc1nc(OC)nc(N2CCc3nc(NC(C)=O)sc3C2)n1` [Compound I-330], at PI-3 kinase γ (compound at 10 μmol/L), the inhibition at 10 µM was found to be 83%. The IC50 against CYP1A2, against CYP2C9, against CYP2C19, at CYP2D6 and on CYP3A4 was more than 20 µM in each case. For the same compound, the solubility at 16 h in the data set “Solubility test” was more than 50 µM. Also, in “Metabolic stability test”, the “percentage of the test compound remained” value is listed as 99%.

`CN(C)C(=O)c1cc(C(=O)Nc2cc3n(n2)CCN3c2ccc3c(c2)CCN(C)C3=O)cs1` [Compound I-432]: on PI-3 kinase γ (compound at 10 μmol/L), the inhibition at 10 µM is not below 95%. For the same compound, the half-maximal inhibitory concentration (IC50) against CYP1A2, at CYP2C9, against CYP2C19, against CYP2D6 and at CYP3A4 was more than 20 µM each time.

As for `CN1CCc2cc(N3CCn4nc(NC(=O)c5cc(O)no5)cc43)ccc2C1=O` [Compound I-397], the inhibition at 10 µM on PI-3 kinase γ (compound at 10 μmol/L) is not below 95%. For the same compound, the IC50 against CYP1A2, at CYP2C9, against CYP2C19, against CYP2D6 and against CYP3A4 was more than 20 µM throughout. The same compound displayed a solubility at 16 h in the data set “Solubility test” of more than 50 µM. In the data set “Metabolic stability test”, the “percentage of the test compound remained” value came out at 96.7%.

For the compound `CN1CCc2cc(N3CCn4nc(NC(=O)CC5CCNC5)cc43)ccc2C1=O.Cl.Cl` (stereo not drawn) [Compound I-356], on PI-3 kinase γ (compound at 10 μmol/L), the inhibition at 10 µM is not below 95%. Besides, the half-maximal inhibitory concentration (IC50) at CYP1A2, against CYP2C9, at CYP2C19, on CYP2D6 and against CYP3A4 was more than 20 µM each time. In “Solubility test”, the solubility at 16 h was more than 50 µM.

For `CN1CCc2cc(N3CCn4nc(NC(=O)c5ccc(C(=O)NCC#N)s5)cc43)ccc2C1=O` [Compound I-409], the inhibition at 10 µM at PI-3 kinase γ (compound at 10 μmol/L) was not below 95%. In addition, the IC50 at CYP1A2, at CYP2C9, on CYP2C19, on CYP2D6 and on CYP3A4 was more than 20 µM each time. In addition, the “percentage of the test compound remained” value in the data set “Metabolic stability test” turned out to be 92.2%.

For the compound `CC(C)NC(=O)c1csc(C(=O)Nc2cc3n(n2)CCN3c2ccc3c(c2)CCN(C)C3=O)c1` [Compound I-402], the inhibition at 10 µM on PI-3 kinase γ (compound at 10 μmol/L) was found to be 91%. For the same compound, the half-maximal inhibitory concentration (IC50) on CYP1A2, at CYP2C9, against CYP2C19, at CYP2D6 and against CYP3A4 was more than 20 µM each time.

For orientation: inhibition means how much of the control response was suppressed. For orientation: IC50 means the concentration that gives 50% inhibition. The term solubility denotes the concentration that dissolves in the medium under given conditions. Read a high solubility as a readily soluble substance.

The record behind these values is US20110230472A1, “RING-FUSED AZOLE DERIVATIVE HAVING PI3K-INHIBITING ACTIVITY” (Shionogi & Co., Ltd., priority 2008, published 2011).
